Measurements: article PMC3878827, “Synthesis and biological characterisation of ^18F-SIG343 and ^18F-SIG353, novel and high selectivity σ2 radiotracers, for tumour imaging properties” (EJNMMI Research, 2013)

What was measured:
[1] = Biodistribution studies in A375 tumour-bearing mice; assay type: in vivo, Balb/C nude mice; settings: for Biodistribution, Blood / Biodistribution, Brain / Biodistribution, Femur / Biodistribution, Heart / Biodistribution, Kidneys / Biodistribution, Liver / Biodistribution, Lungs / Biodistribution, Ovaries / Biodistribution, Pancreas / Biodistribution, Spleen / Biodistribution, Tumour: i.v., ± SEM, n = 5
Method: (§1) Female Balb/C nude mice aged 5 to 6 weeks old were obtained from the Animal Resource Centre (Perth, Australia). The animals were kept at a constant temperature of 22°C ± 2°C on a 12/12 h light/dark cycle with lights on at 09:00 am. Food and water were freely available. After a week of acclimatisation, mice were injected subcutaneously in the left flank with 1 × 10^6 A375 human amelanotic melanoma cells, in 100 μL of Ca^2+/Mg^2+-free phosphate buffered saline. The procedure was performed without anaesthetic. For in vivo studies, A375 tumour-bearing mice were used 26 days after tumour inoculation.
Tumour-bearing mice were used to examine the tissue distribution of radioactivity after intravenous injection into the tail vein of 1 MBq of ^18F-SIG343 or ^18F-SIG353 in 100 μL of saline. At 15, 30, 60, and 120 min post injection of the radiotracer, groups of mice (n = 5) were sacrificed by CO2 administration followed by cervical […] and dissection. Selected organs were weighed, and the radioactivity was measured using a γ-counter. The percentage of injected dose (%ID) was calculated by comparison with suitable dilutions of the injected dose. Radioactivity concentrations were expressed as percentage of injected dose per gram of wet tissue (%ID/g), assuming a uniform density of 1 g/cm^3. Data were corrected for the radioactivity decay and tail injected dose and normalised for the standard mouse body weight (20 g). The remaining activity in the carcass was also determined in order to obtain the total activity in the mouse (background activity) at each time point.
Selected tumour-to-organ (tumour-to-blood and tumour-to-muscle) uptake ratios (TORs), were calculated by dividing the tumour radioactivity concentration (%ID/g) by the radioactivity concentration in the respective organ at time t. Comparisons of organ radioactivity concentrations (%ID/g) and TORs in the biodistribution studies or %ID/cc in PET imaging studies between the two radiotracers were performed using separate unpaired, two-tailed Student's t tests, matched organs and time points.

σ2 receptor = molecular target: T1, σ2 receptor (Mus musculus, UniProt Q8VD00); experiment: In vivo blocking studies in A375 tumour-bearing mice; parameters: species or system Balb/C nude mice; settings: unlabelled SIG353-treated group, 1 mg/kg, 30 min p.i.
T1 construct: from tissue; host or cells: organs of Balb/C nude mice in vivo; tumour xenograft of A375 human amelanotic melanoma cells
T1 sequence (Q8VD00 1-176): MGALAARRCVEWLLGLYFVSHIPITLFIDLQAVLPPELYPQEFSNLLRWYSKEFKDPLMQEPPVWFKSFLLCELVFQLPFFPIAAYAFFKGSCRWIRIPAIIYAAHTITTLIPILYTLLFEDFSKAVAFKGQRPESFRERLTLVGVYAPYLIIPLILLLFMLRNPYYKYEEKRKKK
Method: as §1
Blocking studies were performed to investigate the specific uptake of the tracer via σ2 receptor mechanism. […] Control mice received saline only. Five minutes after injection of the blocking drug, ^18F-SIG343 or ^18F-SIG353 (1 MBq/100 μL of saline) was injected, and groups of mice (n = 5) were sacrificed 30 min post injection of the radiotracer. Organs were processed as described for the biodistribution study. Radioactivity concentrations in the organs in the treatment groups were compared to that measured in control mice.

COc1cc2c(cc1OC)CN(CCCCN1C(=O)c3ccc([18F])cc3C1=O)CC2 [^18F-SIG343]
Biodistribution, Blood ([1]; 15 min post injection): 0.9 ± 0.1 %ID/g
Biodistribution, Brain ([1]; 15 min post injection): 9.6 ± 0.2^ *** %ID/g
Biodistribution, Femur ([1]; 15 min post injection): 4.5 ± 0.4 %ID/g
Biodistribution, Heart ([1]; 15 min post injection): 5.5 ± 0.4 %ID/g
Biodistribution, Kidneys ([1]; 15 min post injection): 26.1 ± 0.6 %ID/g
Biodistribution, Liver ([1]; 15 min post injection): 16.0 ± 0.9^ ** %ID/g
Biodistribution, Lungs ([1]; 15 min post injection): 30.3 ± 1.2^ *** %ID/g
Biodistribution, Ovaries ([1]; 15 min post injection): 10.8 ± 1.8 %ID/g
Biodistribution, Pancreas ([1]; 15 min post injection): 42.9 ± 2.8^ * %ID/g
Biodistribution, Spleen ([1]; 15 min post injection): 14.6 ± 1.2 %ID/g
Biodistribution, Tumour ([1]; 15 min post injection): 3.1 ± 0.5 %ID/g
Biodistribution, Blood ([1]; 30 min post injection): 0.7 ± 0.04 %ID/g
Biodistribution, Brain ([1]; 30 min post injection): 8.8 ± 0.6^ *** %ID/g
Biodistribution, Femur ([1]; 30 min post injection): 4.3 ± 0.2 %ID/g
Biodistribution, Heart ([1]; 30 min post injection): 3.5 ± 0.2^ ** %ID/g
Biodistribution, Kidneys ([1]; 30 min post injection): 19.8 ± 0.9^ *** %ID/g
Biodistribution, Liver ([1]; 30 min post injection): 21.9 ± 0.8^ *** %ID/g
Biodistribution, Lungs ([1]; 30 min post injection): 17.4 ± 0.7^ *** %ID/g
Biodistribution, Ovaries ([1]; 30 min post injection): 14.0 ± 2.2 %ID/g
Biodistribution, Pancreas ([1]; 30 min post injection): 50.2 ± 2.0^ *** %ID/g
Biodistribution, Spleen ([1]; 30 min post injection): 15.2 ± 1.1^ * %ID/g
Biodistribution, Tumour ([1]; 30 min post injection): 3.0 ± 0.1^ * %ID/g
Biodistribution, Blood ([1]; 60 min post injection): 0.6 ± 0.1 %ID/g
Biodistribution, Brain ([1]; 60 min post injection): 7.1 ± 0.4^ *** %ID/g
Biodistribution, Femur ([1]; 60 min post injection): 3.8 ± 0.1 %ID/g
Biodistribution, Heart ([1]; 60 min post injection): 1.9 ± 0.04^ ** %ID/g
Biodistribution, Kidneys ([1]; 60 min post injection): 12.0 ± 0.6^ ** %ID/g
Biodistribution, Liver ([1]; 60 min post injection): 15.2 ± 1.1^ *** %ID/g
Biodistribution, Lungs ([1]; 60 min post injection): 9.9 ± 0.3^ *** %ID/g
Biodistribution, Ovaries ([1]; 60 min post injection): 13.5 ± 2.2 %ID/g
Biodistribution, Pancreas ([1]; 60 min post injection): 64.4 ± 3.5^ *** %ID/g
Biodistribution, Spleen ([1]; 60 min post injection): 12.8 ± 0.9^ *** %ID/g
Biodistribution, Tumour ([1]; 60 min post injection): 3.5 ± 0.3^ * %ID/g
Biodistribution, Blood ([1]; 120 min post injection): 0.4 ± 0.01 %ID/g
Biodistribution, Brain ([1]; 120 min post injection): 5.2 ± 0.7^ *** %ID/g
Biodistribution, Femur ([1]; 120 min post injection): 3.2 ± 0.1 %ID/g
Biodistribution, Heart ([1]; 120 min post injection): 1.1 ± 0.1 %ID/g
Biodistribution, Kidneys ([1]; 120 min post injection): 7.5 ± 0.4 %ID/g
Biodistribution, Liver ([1]; 120 min post injection): 19.8 ± 0.9^ * %ID/g
Biodistribution, Lungs ([1]; 120 min post injection): 5.0 ± 0.3 %ID/g
Biodistribution, Ovaries ([1]; 120 min post injection): 11.5 ± 1.4 %ID/g
Biodistribution, Pancreas ([1]; 120 min post injection): 61.7 ± 3.4^ *** %ID/g
Biodistribution, Spleen ([1]; 120 min post injection): 8.5 ± 0.2^ *** %ID/g
Biodistribution, Tumour ([1]; 120 min post injection): 3.9 ± 0.2 %ID/g
Tumour-to-blood uptake ratio ([1]; at 120 min): eight- to ninefold
Tumour-to-muscle uptake ratio ([1]; at 120 min): 4

COc1cc2c(cc1OC)CN(CCCCCN1C(=O)c3ccc([18F])cc3C1=O)CC2 [^18F-SIG353]
Biodistribution, Blood ([1]; 15 min post injection): 1.2 ± 0.03 %ID/g
Biodistribution, Brain ([1]; 15 min post injection): 4.4 ± 0.2 %ID/g
Biodistribution, Femur ([1]; 15 min post injection): 5.3 ± 0.3 %ID/g
Biodistribution, Heart ([1]; 15 min post injection): 4.5 ± 0.2 %ID/g
Biodistribution, Kidneys ([1]; 15 min post injection): 23.4 ± 2.0 %ID/g
Biodistribution, Liver ([1]; 15 min post injection): 23.5 ± 2.0 %ID/g
Biodistribution, Lungs ([1]; 15 min post injection): 17.4 ± 0.5 %ID/g
Biodistribution, Ovaries ([1]; 15 min post injection): 10.0 ± 0.9 %ID/g
Biodistribution, Pancreas ([1]; 15 min post injection): 56.4 ± 4.7 %ID/g
Biodistribution, Spleen ([1]; 15 min post injection): 15.7 ± 1.1 %ID/g
Biodistribution, Tumour ([1]; 15 min post injection): 3.8 ± 0.3 %ID/g
Biodistribution, Blood ([1]; 30 min post injection): 1.0 ± 0.1 %ID/g
Biodistribution, Brain ([1]; 30 min post injection): 2.3 ± 0.1 %ID/g
Biodistribution, Femur ([1]; 30 min post injection): 4.7 ± 0.2 %ID/g
Biodistribution, Heart ([1]; 30 min post injection): 2.5 ± 0.1 %ID/g
Biodistribution, Kidneys ([1]; 30 min post injection): 13.3 ± 0.8 %ID/g
Biodistribution, Liver ([1]; 30 min post injection): 33.0 ± 1.8 %ID/g
Biodistribution, Lungs ([1]; 30 min post injection): 8.6 ± 0.4 %ID/g
Biodistribution, Ovaries ([1]; 30 min post injection): 11.8 ± 1.5 %ID/g
Biodistribution, Pancreas ([1]; 30 min post injection): 72.8 ± 2.4 %ID/g
Biodistribution, Spleen ([1]; 30 min post injection): 12.0 ± 0.6 %ID/g
Biodistribution, Tumour ([1]; 30 min post injection): 3.8 ± 0.3 %ID/g
Biodistribution, Blood ([1]; 60 min post injection): 0.7 ± 0.02 %ID/g
Biodistribution, Brain ([1]; 60 min post injection): 1.3 ± 0.01 %ID/g
Biodistribution, Femur ([1]; 60 min post injection): 3.8 ± 0.2 %ID/g
Biodistribution, Heart ([1]; 60 min post injection): 1.7 ± 0.02 %ID/g
Biodistribution, Kidneys ([1]; 60 min post injection): 8.7 ± 0.3 %ID/g
Biodistribution, Liver ([1]; 60 min post injection): 32.6 ± 1.0 %ID/g
Biodistribution, Lungs ([1]; 60 min post injection): 6.1 ± 0.1 %ID/g
Biodistribution, Ovaries ([1]; 60 min post injection): 9.6 ± 1.5 %ID/g
Biodistribution, Pancreas ([1]; 60 min post injection): 94.3 ± 4.2 %ID/g
Biodistribution, Spleen ([1]; 60 min post injection): 7.7 ± 0.4 %ID/g
Biodistribution, Tumour ([1]; 60 min post injection): 4.6 ± 0.2 %ID/g
Biodistribution, Blood ([1]; 120 min post injection): 0.7 ± 0.03 %ID/g
Biodistribution, Brain ([1]; 120 min post injection): 0.8 ± 0.02 %ID/g
Biodistribution, Femur ([1]; 120 min post injection): 3.9 ± 0.1 %ID/g
Biodistribution, Heart ([1]; 120 min post injection): 1.3 ± 0.1 %ID/g
Biodistribution, Kidneys ([1]; 120 min post injection): 7.1 ± 0.2 %ID/g
Biodistribution, Liver ([1]; 120 min post injection): 24.1 ± 1.4 %ID/g
Biodistribution, Lungs ([1]; 120 min post injection): 4.7 ± 0.2 %ID/g
Biodistribution, Ovaries ([1]; 120 min post injection): 12.2 ± 3.1 %ID/g
Biodistribution, Pancreas ([1]; 120 min post injection): 119.2 ± 1.6 %ID/g
Biodistribution, Spleen ([1]; 120 min post injection): 5.5 ± 0.2 %ID/g
Biodistribution, Tumour ([1]; 120 min post injection): 4.8 ± 0.4 %ID/g
Tumour-to-blood uptake ratio ([1]; at 120 min): eight- to ninefold
Increase (↑) of radiotracer uptake in pancreas versus control (σ2 receptor): 37%
